According to patent publication US20250099474A1 (priority 2022, published 2025):
Where two headings read alike, the source gives them in different places.

Legend:
SARS-CoV-2 = format: in vivo, human; conditions: Phase 3 Part, mild/moderate patients, ITT, onset to randomization less than 72 hours; for Time to resolution of 12 COVID-19 symptoms: Maximum value / Time to resolution of 14 COVID-19 symptoms: Maximum value / Time to resolution of five COVID-19 symptoms: Maximum value: +: includes censored data
Description: The primary endpoint of Phase 3 Part was the time to resolution of five COVID-19 symptoms in mild/moderate SARS-CoV-2-infected patients, and the efficacy was verified by evaluation of the five COVID-19 symptoms in four grades (0: none, 1: mild, 2: moderate, 3: severe) by the patients themselves.
The 750/250 mg group received 750 mg on Day 1 as a loading dose and 250 mg on Days 2 to 5 as a maintenance dose.
The primary efficacy endpoint of Phase 3 Part for mild/moderate SARS-CoV-2-infected patients was the time to resolution of the five COVID-19 symptoms.
Existing symptoms that existed before the onset of COVID-19 and were determined by the subject to be worsening at the baseline (pre-administration test) time point had to be improved […] from the severity at the baseline time point. • Severity at baseline was “severe”→“moderate”, “mild”, or “none” • Severity at baseline was “moderate”→“mild”, or “none” • Severity at baseline was “mild”→[…] “none” • Existing symptoms that existed before the onset of COVID-19 and were determined by the subject not to be worsening at the baseline (pre-administration test) time point had to be maintained or improved from the severity at the baseline time point. • Severity at baseline was “severe”->“severe”, “moderate”, “mild”, or “none” • Severity at baseline was “moderate”->“moderate”, “mild”, or “none” • Severity at baseline was “mild”→“mild”, or “none” • Regarding symptoms other than the above, that is, symptoms that were not present before the onset of COVID-19 and developed at or after the baseline (pre-administration test) time point, such symptoms had to be eliminated. • Severity at baseline was “severe”, “moderate”, or “mild”→“none”
As the key secondary analysis of the primary endpoint, the same analysis as the primary analysis was performed for the population of the mild/moderate SARS-CoV-2-infected patients in the ITT population.

[1] = Phase I clinical study Part 1, single administration, pharmacokinetics and safety; format: in vivo, human; conditions: phase 1 study
Description: Test Example 3-1 Phase I Clinical Study
All studies were conducted based on Good Clinical Practice (GCP). The phase I clinical study was composed of Part 1 to Part 7, and in Part 1, the safety, tolerability, and pharmacokinetics were confirmed when the fumaric acid cocrystal Form I crystal of the compound represented by Formula (I) was administered once and when it was administered repeatedly.
The subjects who were determined to be eligible by the screening examination were randomly assigned to either the active drug group (see the following table for the dose of the fumaric acid cocrystal Form I crystal of the compound represented by Formula (I)) or the placebo group on the day before the day of administration of the investigational new drug (Day −1). On Day 1, the investigational new drug (active drug or placebo) was administered once in the fasted state.

[2] = 375/125 mg group, 336 cases analyzed
[3] = 750/250 mg group, 330 cases analyzed

Structure (SMILES): Cn1cnc(Cn2c(=O)[nH]/c(=N\c3cc4cn(C)nc4cc3Cl)n(Cc3cc(F)c(F)cc3F)c2=O)n1 [(6E)-6-[(6-chloro-2-methyl-2H-indazol-5-yl)imino]-3-[(1-methyl-1H-1,2,4-triazol-3-yl)methyl]-1-[(2,4,5-trifluorophenyl)methyl]-1,3,5-triazinane-2,4-dione]
- Time to resolution of five COVID-19 symptoms: Difference of RMST (vs placebo) (SARS-CoV-2; 375/125 mg group): -19.4 h
- Time to resolution of five COVID-19 symptoms: Difference of median value (vs placebo) (SARS-CoV-2; 375/125 mg group): -24.3 h
- Time to resolution of five COVID-19 symptoms: Kaplan-Meier median value (SARS-CoV-2; 375/125 mg group): 167.9 h
- Time to resolution of five COVID-19 symptoms: Minimum value (SARS-CoV-2; 375/125 mg group): 2.4 h
- Time to resolution of five COVID-19 symptoms: Number of events (value in parentheses) (SARS-CoV-2; 375/125 mg group): (75.6)
- Time to resolution of five COVID-19 symptoms: Restricted mean survival time during 21 days (RMST) (SARS-CoV-2; 375/125 mg group): 241.6 h
- Time to resolution of 12 COVID-19 symptoms: Number of events (SARS-CoV-2; [2]): 244
- Time to resolution of 14 COVID-19 symptoms: Number of events (SARS-CoV-2; [2]): 241
- Time to resolution of five COVID-19 symptoms: Number of events (SARS-CoV-2; [2]): 254
- Time to resolution of 12 COVID-19 symptoms: Maximum value (SARS-CoV-2; 375/125 mg group): 489.1 h
- Time to resolution of 14 COVID-19 symptoms: Maximum value (SARS-CoV-2; 375/125 mg group): 489.1 h
- Time to resolution of five COVID-19 symptoms: Maximum value (SARS-CoV-2; 375/125 mg group): 489.1 h
- Time to resolution of 12 COVID-19 symptoms: 25% point (SARS-CoV-2; 750/250 mg group): 114.2 h
- Time to resolution of 12 COVID-19 symptoms: 75% point (SARS-CoV-2; 750/250 mg group): 422.7 h
- Time to resolution of 12 COVID-19 symptoms: Difference of RMST (vs placebo) (SARS-CoV-2; 750/250 mg group): -20.8 h
- Time to resolution of 12 COVID-19 symptoms: Difference of median value (vs placebo) (SARS-CoV-2; 750/250 mg group): -28.3 h
- Time to resolution of 12 COVID-19 symptoms: Kaplan-Meier median value (SARS-CoV-2; 750/250 mg group): 184.9 h
- Time to resolution of 12 COVID-19 symptoms: Minimum value (SARS-CoV-2; 750/250 mg group): 9.4 h
- Time to resolution of 12 COVID-19 symptoms: Number of events (value in parentheses) (SARS-CoV-2; 750/250 mg group): (78.2)
- Time to resolution of 12 COVID-19 symptoms: Restricted mean survival time during 21 days (RMST) (SARS-CoV-2; 750/250 mg group): 249.9 h
- Time to resolution of 14 COVID-19 symptoms: 25% point (SARS-CoV-2; 750/250 mg group): 117.1 h
- Time to resolution of 14 COVID-19 symptoms: 75% point (SARS-CoV-2; 750/250 mg group): 431.6 h
- Time to resolution of 14 COVID-19 symptoms: Difference of RMST (vs placebo) (SARS-CoV-2; 750/250 mg group): -22.0 h
- Time to resolution of 14 COVID-19 symptoms: Difference of median value (vs placebo) (SARS-CoV-2; 750/250 mg group): -41.5 h
- Time to resolution of 14 COVID-19 symptoms: Kaplan-Meier median value (SARS-CoV-2; 750/250 mg group): 190.3 h
- Time to resolution of 14 COVID-19 symptoms: Minimum value (SARS-CoV-2; 750/250 mg group): 9.4 h
- Time to resolution of 14 COVID-19 symptoms: Number of events (value in parentheses) (SARS-CoV-2; 750/250 mg group): (77.3)
- Time to resolution of 14 COVID-19 symptoms: Restricted mean survival time during 21 days (RMST) (SARS-CoV-2; 750/250 mg group): 256.0 h
- Time to resolution of five COVID-19 symptoms: 25% point (SARS-CoV-2; 750/250 mg group): 96.7 h
- Time to resolution of five COVID-19 symptoms: 75% point (SARS-CoV-2; 750/250 mg group): 360.9 h
- Time to resolution of five COVID-19 symptoms: Difference of RMST (vs placebo) (SARS-CoV-2; 750/250 mg group): -26.1 h
- Time to resolution of five COVID-19 symptoms: Difference of median value (vs placebo) (SARS-CoV-2; 750/250 mg group): -21.0 h
- Time to resolution of five COVID-19 symptoms: Kaplan-Meier median value (SARS-CoV-2; 750/250 mg group): 171.2 h
- Time to resolution of five COVID-19 symptoms: Minimum value (SARS-CoV-2; 750/250 mg group): 9.4 h
- Time to resolution of five COVID-19 symptoms: Number of events (value in parentheses) (SARS-CoV-2; 750/250 mg group): (79.6)
- Time to resolution of five COVID-19 symptoms: Restricted mean survival time during 21 days (RMST) (SARS-CoV-2; 750/250 mg group): 234.8 h
- Time to resolution of five COVID-19 symptoms: Number of events (SARS-CoV-2; 750/250 mg group, 329 cases analyzed): 262
- Time to resolution of 12 COVID-19 symptoms: Number of events (SARS-CoV-2; [3]): 258
- Time to resolution of 14 COVID-19 symptoms: Number of events (SARS-CoV-2; [3]): 255
- Time to resolution of 12 COVID-19 symptoms: Maximum value (SARS-CoV-2; 750/250 mg group): 490.1 h
- Time to resolution of 14 COVID-19 symptoms: Maximum value (SARS-CoV-2; 750/250 mg group): 490.1 h
- Time to resolution of five COVID-19 symptoms: Maximum value (SARS-CoV-2; 750/250 mg group): 490.1 h
- serious adverse events [1]: no serious adverse events for which a causal relationship cannot be denied were reported
